In ChEMBL document CHEMBL3885861, “Open TG-GATES”:

Species: Rattus norvegicus
Test: Open TG-GATES - Regimen: Daily Repeat
Type: toxicity, organism-based, Sprague-Dawley
Parameters: regimen Daily Repeat, gender Male, age 6 weeks
Conditions: in vivo, po, route gavage; for APTT / Bas / Eos / Fbg / Hb / Ht / Lym / MCH / MCHC / MCV / Mono / Neu / PT / Plat / RBC / Ret / WBC: tissue Blood; for KIDNEY_L / KIDNEY_R / KIDNEY_TOTAL: tissue Kidney; for LIVER: tissue Liver; for A/G / ALP / ALT / AST / BUN / CRE / Ca / Cl / DBIL / GLC / IP / K / LDH / Na / PL / RALB / TBIL / TC / TG / TP / gamma-GTP: tissue Plasma
[1] = 0 mg/kg, 72 h, dose level Control, time 3 day
[2] = 0 mg/kg, […], dose level Control, time 7 day
[3] = 0 mg/kg, […], dose level Control, time 14 day
[4] = 0 mg/kg, […], dose level Control, time 28 day
[5] = 15 mg/kg, 72 h, dose level Low, time 3 day
[6] = 15 mg/kg, […], dose level Low, time 7 day
[7] = 15 mg/kg, […], dose level Low, time 14 day
[8] = 15 mg/kg, […], dose level Low, time 28 day

Nc1nc(N)c2nc(-c3ccccc3)c(N)nc2n1
TERMINAL_BW [1]: 242.6 g
APTT [1]: 16.3 s
Bas [1]: 0.2%
Eos [1]: 1%
Fbg [1]: 334.2 mg/dL
Hb [1]: 13.8 g/dL
Ht [1]: 40.7%
Lym [1]: 78.8%
MCH [1]: 20.8 pg
MCHC [1]: 33.9%
MCV [1]: 61.3 fL
Mono [1]: 2.2%
Neu [1]: 17.2%
PT [1]: 13.9 s
Plat [1]: 128.5 x10_4/uL
RBC [1]: 664.4 x10_4/ul
Ret [1]: 6.2%
WBC [1]: 102.2 x10_2/uL
KIDNEY_L [1]: 1.1 g
KIDNEY_R [1]: 1.1 g
KIDNEY_TOTAL [1]: 2.1 g
LIVER [1]: 11.1 g
A/G [1]: 0.9
ALP [1]: 1605.2 IU/L
ALT [1]: 41.4 IU/L
AST [1]: 69.4 IU/L
BUN [1]: 15 mg/dL
CRE [1]: 0.2 mg/dL
Ca [1]: 10.9 mg/dL
Cl [1]: 105.2 meq/L
DBIL [1]: 0.01 mg/dL
GLC [1]: 166 mg/dL
IP [1]: 7.7 mg/dL
K [1]: 4.1 meq/L
LDH [1]: 60.2 IU/L
Na [1]: 142.6 meq/L
PL [1]: 152.4 mg/dL
RALB [1]: 2.6 g/dL
TBIL [1]: 0.042 mg/dL
TC [1]: 80.6 mg/dL
TG [1]: 102.4 mg/dL
TP [1]: 5.6 g/dL
gamma-GTP [1]: 1 IU/L
TERMINAL_BW [2]: 286.3 g
TERMINAL_BW [3]: 328 g
TERMINAL_BW [4]: 424 g
APTT [2]: 18 s
Bas [2]: 0%
Eos [2]: 0.6%
Fbg [2]: 302.8 mg/dL
Hb [2]: 13.9 g/dL
Ht [2]: 42.9%
Lym [2]: 78.8%
MCH [2]: 20.6 pg
MCHC [2]: 32.5%
MCV [2]: 63.6 fL
Mono [2]: 2.6%
Neu [2]: 17.6%
PT [2]: 13.3 s
Plat [2]: 136.4 x10_4/uL
RBC [2]: 675.8 x10_4/ul
Ret [2]: 5.9%
WBC [2]: 94 x10_2/uL
APTT [3]: 18.4 s
Bas [3]: 0%
Eos [3]: 1%
Fbg [3]: 313.2 mg/dL
Hb [3]: 14.6 g/dL
Ht [3]: 44.3%
Lym [3]: 78.4%
MCH [3]: 19.5 pg
MCHC [3]: 33%
MCV [3]: 59.2 fL
Mono [3]: 2.6%
Neu [3]: 18%
PT [3]: 13.2 s
Plat [3]: 132.7 x10_4/uL
RBC [3]: 748 x10_4/ul
Ret [3]: 3.7%
WBC [3]: 91.5 x10_2/uL
APTT [4]: 18 s
Bas [4]: 0.6%
Eos [4]: 1.2%
Fbg [4]: 294.6 mg/dL
Hb [4]: 15.4 g/dL
Ht [4]: 46.3%
Lym [4]: 82.6%
MCH [4]: 18.8 pg
MCHC [4]: 33.3%
MCV [4]: 56.5 fL
Mono [4]: 2.2%
Neu [4]: 13.6%
PT [4]: 13 s
Plat [4]: 111.3 x10_4/uL
RBC [4]: 819.6 x10_4/ul
Ret [4]: 2.3%
WBC [4]: 87 x10_2/uL
KIDNEY_L [2]: 1.2 g
KIDNEY_R [2]: 1.2 g
KIDNEY_TOTAL [2]: 2.3 g
KIDNEY_L [3]: 1.2 g
KIDNEY_R [3]: 1.2 g
KIDNEY_TOTAL [3]: 2.4 g
KIDNEY_L [4]: 1.5 g
KIDNEY_R [4]: 1.4 g
KIDNEY_TOTAL [4]: 2.9 g
LIVER [2]: 13.7 g
LIVER [3]: 13.8 g
LIVER [4]: 16.7 g
A/G [2]: 0.9
ALP [2]: 1612.4 IU/L
ALT [2]: 43.2 IU/L
AST [2]: 63.4 IU/L
BUN [2]: 16.2 mg/dL
CRE [2]: 0.2 mg/dL
Ca [2]: 11.1 mg/dL
Cl [2]: 104.4 meq/L
DBIL [2]: 0.014 mg/dL
GLC [2]: 186.2 mg/dL
IP [2]: 7.7 mg/dL
K [2]: 4.3 meq/L
LDH [2]: 63.4 IU/L
Na [2]: 142.4 meq/L
PL [2]: 179.4 mg/dL
RALB [2]: 2.7 g/dL
TBIL [2]: 0.076 mg/dL
TC [2]: 90.2 mg/dL
TG [2]: 133 mg/dL
TP [2]: 5.8 g/dL
gamma-GTP [2]: 1 IU/L
A/G [3]: 0.8
ALP [3]: 1497.6 IU/L
ALT [3]: 34 IU/L
AST [3]: 60 IU/L
BUN [3]: 14.6 mg/dL
CRE [3]: 0.2 mg/dL
Ca [3]: 10.6 mg/dL
Cl [3]: 105.6 meq/L
DBIL [3]: 0.01 mg/dL
GLC [3]: 191.6 mg/dL
IP [3]: 7.5 mg/dL
K [3]: 4 meq/L
LDH [3]: 60.4 IU/L
Na [3]: 143 meq/L
PL [3]: 154.4 mg/dL
RALB [3]: 2.7 g/dL
TBIL [3]: 0.068 mg/dL
TC [3]: 72.8 mg/dL
TG [3]: 141.6 mg/dL
TP [3]: 5.9 g/dL
gamma-GTP [3]: 1 IU/L
A/G [4]: 0.8
ALP [4]: 1077.6 IU/L
ALT [4]: 40 IU/L
AST [4]: 67.4 IU/L
BUN [4]: 16 mg/dL
CRE [4]: 0.2 mg/dL
Ca [4]: 10.8 mg/dL
Cl [4]: 104.2 meq/L
DBIL [4]: 0.012 mg/dL
GLC [4]: 194.8 mg/dL
IP [4]: 6.5 mg/dL
K [4]: 3.8 meq/L
LDH [4]: 76.4 IU/L
Na [4]: 143.4 meq/L
PL [4]: 144.8 mg/dL
RALB [4]: 2.8 g/dL
TBIL [4]: 0.066 mg/dL
TC [4]: 68.2 mg/dL
TG [4]: 149.6 mg/dL
TP [4]: 6.3 g/dL
gamma-GTP [4]: 1 IU/L
TERMINAL_BW [5]: 248.4 g
APTT [5]: 16.1 s
Bas [5]: 0.2%
Eos [5]: 0.6%
Fbg [5]: 310.8 mg/dL
Hb [5]: 14.1 g/dL
Ht [5]: 41.7%
Lym [5]: 78.4%
MCH [5]: 21.8 pg
MCHC [5]: 33.8%
MCV [5]: 64.7 fL
Mono [5]: 2.2%
Neu [5]: 18.2%
PT [5]: 13.8 s
Plat [5]: 132.9 x10_4/uL
RBC [5]: 645.4 x10_4/ul
Ret [5]: 6.8%
WBC [5]: 109.4 x10_2/uL
KIDNEY_L [5]: 1.1 g
KIDNEY_R [5]: 1 g
KIDNEY_TOTAL [5]: 2.1 g
LIVER [5]: 11.6 g
A/G [5]: 0.9
ALP [5]: 1861.8 IU/L
ALT [5]: 41.4 IU/L
AST [5]: 66 IU/L
BUN [5]: 14.8 mg/dL
CRE [5]: 0.2 mg/dL
Ca [5]: 11 mg/dL
Cl [5]: 105.4 meq/L
DBIL [5]: 0.01 mg/dL
GLC [5]: 175.2 mg/dL
IP [5]: 7.8 mg/dL
K [5]: 3.8 meq/L
LDH [5]: 67.2 IU/L
Na [5]: 142.8 meq/L
PL [5]: 159.4 mg/dL
RALB [5]: 2.6 g/dL
TBIL [5]: 0.042 mg/dL
TC [5]: 81.4 mg/dL
TG [5]: 115 mg/dL
TP [5]: 5.6 g/dL
gamma-GTP [5]: 1.2 IU/L
TERMINAL_BW [6]: 282.4 g
TERMINAL_BW [7]: 340.6 g
TERMINAL_BW [8]: 410.6 g
APTT [6]: 16.7 s
Bas [6]: 0%
Eos [6]: 1%
Fbg [6]: 313.2 mg/dL
Hb [6]: 13.7 g/dL
Ht [6]: 42.1%
Lym [6]: 77.2%
MCH [6]: 20.1 pg
MCHC [6]: 32.4%
MCV [6]: 61.9 fL
Mono [6]: 2.4%
Neu [6]: 19.2%
PT [6]: 13.9 s
Plat [6]: 123.2 x10_4/uL
RBC [6]: 679.2 x10_4/ul
Ret [6]: 5.5%
WBC [6]: 88.7 x10_2/uL
APTT [7]: 18 s
Bas [7]: 0%
Eos [7]: 1%
Fbg [7]: 295.2 mg/dL
Hb [7]: 14.5 g/dL
Ht [7]: 44.4%
Lym [7]: 79.2%
MCH [7]: 20.2 pg
MCHC [7]: 32.7%
MCV [7]: 61.6 fL
Mono [7]: 2.2%
Neu [7]: 17.2%
PT [7]: 13.1 s
Plat [7]: 114.4 x10_4/uL
RBC [7]: 720.6 x10_4/ul
Ret [7]: 4.2%
WBC [7]: 94.6 x10_2/uL
APTT [8]: 18.6 s
Bas [8]: 0.2%
Eos [8]: 1.2%
Fbg [8]: 294.8 mg/dL
Hb [8]: 15.6 g/dL
Ht [8]: 46.4%
Lym [8]: 78.6%
MCH [8]: 18.9 pg
MCHC [8]: 33.6%
MCV [8]: 56.3 fL
Mono [8]: 1.8%
Neu [8]: 17.6%
PT [8]: 13.4 s
Plat [8]: 111.2 x10_4/uL
RBC [8]: 825 x10_4/ul
Ret [8]: 2.1%
WBC [8]: 89.6 x10_2/uL
KIDNEY_L [6]: 1.2 g
KIDNEY_R [6]: 1.1 g
KIDNEY_TOTAL [6]: 2.3 g
KIDNEY_L [7]: 1.3 g
KIDNEY_R [7]: 1.2 g
KIDNEY_TOTAL [7]: 2.5 g
KIDNEY_L [8]: 1.4 g
KIDNEY_R [8]: 1.4 g
KIDNEY_TOTAL [8]: 2.8 g
LIVER [6]: 13.1 g
LIVER [7]: 14.6 g
LIVER [8]: 15.5 g
A/G [6]: 0.8
ALP [6]: 1439.8 IU/L
ALT [6]: 39.8 IU/L
AST [6]: 62.6 IU/L
BUN [6]: 14.8 mg/dL
CRE [6]: 0.2 mg/dL
Ca [6]: 11 mg/dL
Cl [6]: 104.6 meq/L
DBIL [6]: 0.016 mg/dL
GLC [6]: 185 mg/dL
IP [6]: 7.9 mg/dL
K [6]: 4 meq/L
LDH [6]: 60.4 IU/L
Na [6]: 143.4 meq/L
PL [6]: 155.6 mg/dL
RALB [6]: 2.6 g/dL
TBIL [6]: 0.074 mg/dL
TC [6]: 75.2 mg/dL
TG [6]: 137 mg/dL
TP [6]: 5.7 g/dL
gamma-GTP [6]: 1.2 IU/L
A/G [7]: 0.9
ALP [7]: 1252.8 IU/L
ALT [7]: 40.2 IU/L
AST [7]: 62.6 IU/L
BUN [7]: 16.2 mg/dL
CRE [7]: 0.2 mg/dL
Ca [7]: 10.4 mg/dL
Cl [7]: 105 meq/L
DBIL [7]: 0.012 mg/dL
GLC [7]: 180.2 mg/dL
IP [7]: 7.5 mg/dL
K [7]: 3.8 meq/L
LDH [7]: 58 IU/L
Na [7]: 143.4 meq/L
PL [7]: 141.6 mg/dL
RALB [7]: 2.7 g/dL
TBIL [7]: 0.068 mg/dL
TC [7]: 67.4 mg/dL
TG [7]: 111.6 mg/dL
TP [7]: 5.8 g/dL
gamma-GTP [7]: 1 IU/L
A/G [8]: 0.8
ALP [8]: 1186.2 IU/L
ALT [8]: 35.6 IU/L
AST [8]: 63.4 IU/L
BUN [8]: 16.2 mg/dL
CRE [8]: 0.3 mg/dL
Ca [8]: 10.7 mg/dL
Cl [8]: 104.6 meq/L
DBIL [8]: 0.01 mg/dL
GLC [8]: 187.6 mg/dL
IP [8]: 6.6 mg/dL
K [8]: 3.9 meq/L
LDH [8]: 54.4 IU/L
Na [8]: 143 meq/L
PL [8]: 140.4 mg/dL
RALB [8]: 2.7 g/dL
TBIL [8]: 0.06 mg/dL
TC [8]: 69.6 mg/dL
TG [8]: 123 mg/dL
TP [8]: 6 g/dL
gamma-GTP [8]: 1 IU/L
